The values below come from patent US20230203026A1, “PESTICIDAL COMPOSITIONS AND METHODS” (CORTEVA AGRISCIENCE LLC, priority 2017, published 2023).

Experiment [1] has as its system Cabbage Looper (Trichloplusia ni, TRIPNI) ("CL"). Description: Insecticidal test for cabbage looper, 128-well diet tray assay. The class given is in vivo. Particulars: Trichoplusia ni, 168 h; 50 μg/cm^2 of test compound on artificial diet; second instar CL larvae; 25° C.; five to seven days; average of eight wells; read-out: CL % Control (or Mortality) rating. The protocol:
Insecticidal Test for Cabbage Looper (Trichloplusia ni, TRIPNI) (“CL”)
(§1) Bioassays on cabbage looper (CL; Trichloplusia ni: Lepidoptera) are conducted using a 128-well diet tray assay. One to five second instar CL larvae are placed in each well (3 mL) of the diet tray that had been previously filled with 1 mL of artificial diet to which 50 μg/cm^2 of the test compound (dissolved in 50 μL of 90:10 acetone-water mixture) had been applied (to each of eight wells) and then allowed to dry. Trays are covered with a clear self-adhesive cover, vented to allow gas exchange, and held at 25° C., 14:10 light-dark for five to seven days. Percent mortality is recorded for the larvae in each well; activity in the eight wells is then averaged.

Experiment [2] has as its system beet armyworm (Spodoptera exigua, LAPHEG) ("BAW"). Description: Insecticidal test for beet armyworm, 128-well diet tray assay. It is filed as in vivo. The note with it: 168 h, 50 μg/cm^2 of test compound on artificial diet, second instar BAW larvae, 25° C., five to seven days, average of eight wells, read-out: BAW % Control (or Mortality) rating. The protocol: Insecticidal test for beet armyworm (Spodoptera exigua, LAPHEG) (“BAW”)
as §1, with “beet armyworm (BAW; Spodoptera exigua:” for “cabbage looper (CL; Trichloplusia ni:”, “BAW” for “CL”

As to `CC(C)c1ccc(Cl)cc1N1C(=O)CS/C1=N\C(=O)NN(C)C(C)c1ccc(-c2ncn(-c3ccc(OC(F)(F)F)cc3)n2)cc1` (stereo not shown) [A36, (Z)—N-(3-(5-Chloro-2-isopropylphenyl)-4-oxothiazolidin-2-ylidene)-2-methyl-2-(1-(4-(1-(4-(trifluoromethoxy)phenyl)-1H-1,2,4-triazol-3-yl)phenyl)ethyl)hydrazine-1-carboxamide], the mortality at 50 µg/cm2 in experiment [1] and in experiment [2] was 50 to 100% in each case.
In the case of `Cc1ccc(C(C)C)c(N2C(=O)CS/C2=N\C(=O)NOCc2ccc(-c3ncn(-c4ccc(OC(F)(F)C(F)(F)F)cc4)n3)cc2)c1` [A33, (Z)-1-(3-(2-Isopropyl-5-methylphenyl)-4-oxothiazolidin-2-ylidene)-3-((4-(1-(4-(perfluoroethoxy)phenyl)-1H-1,2,4-triazol-3-yl)benzyl)oxy)urea], the mortality at 50 µg/cm2 in experiment [1] and in experiment [2] was 50 to 100% in each case.
